From article PMC5674221, “Harnessing fungal nonribosomal cyclodepsipeptide synthetases for mechanistic insights and tailored engineering” (Chemical Science, 2017)
Like-named read-outs stand apart in the source and are kept apart here.

Legend:
[1] = tested on: Aspergillus fumigatus Afum:00073 = ATCC46645; experiment: Antifungal inhibition zone test, A. fumigatus; format: cell-based; conditions: JMRC-No. ATCC 46645; Supplementary Table 6
Description: (§1) Bioactivity assays. Purified octa-enniatin B, octa-beauvericin and hexa-bassianolide were tested for antiparasitic, antibacterial and antifungal bioactivity together with standards of enniatin B, beauvericin and bassianolide. […]
(§2) Table 5). Antifungal activity was determined against Sporobolomyces salmonicolor […]
(§3) Aspergillus fumigatus Afum:00073 = ATCC46645 (Supplementary Table 6). The bacterial and fungal test strains are deposited at the Jena Microbial Resource Collection at www.jmrc.hki-jena.de. Activity was determined based on inhibition zone diameters in […]
(§4) (antifungal) in accordance to Krieg et al. (2017).10 […]
(§5) p- Colonies in inhibition zone
(§6) P- Many colonies in inhibition zone
(§7) F- Promotion of inhibition zone
(§8) A- Intimation of inhibition
(§9) Supplementary Table 6: Antifungal activity of natural and hybrid CDPs. Activity was analyzed by comparison of inhibition zone diameters.

[2] = tested on: Candida albicans STI:25000; experiment: Antifungal inhibition zone test, C. albicans; format: cell-based; conditions: JMRC-No. STI:25000; Supplementary Table 6
Description: as §1, §2, §3, §4, §5, §6, §7, §8, §9

[3] = tested on: Penicillium notatum STI:50164; experiment: Antifungal inhibition zone test, P. notatum; format: cell-based; conditions: JMRC-No. STI:50164; Supplementary Table 6; solvent gave 10
Description: as §1, §2, §3, §4, §5, §6, §7, §8, §9

[4] = tested on: Sporobolomyces salmonicolor ST:35974; experiment: Antifungal inhibition zone test, S. salmonicolor; format: cell-based; conditions: JMRC-No. ST:35974; Supplementary Table 6; solvent gave 10
Description: as §1, §2, §3, §4, §5, §6, §7, §8, §9

[5] = tested on: Trypanosoma cruzi Tulahuen C4 (amastigotes); experiment: microbe, parasite or virus in culture; conditions: for IC50: read-out: IC50 Trypanosoma cruzi; for fold lower IC50 against T. cruzi than the reference drug benznidazole: given as 'up to'
Description: Bioactivity assays. Purified octa-enniatin B, octa-beauvericin and hexa-bassianolide were tested for antiparasitic, antibacterial and antifungal bioactivity together with standards of enniatin B, beauvericin and bassianolide. Antiparasitic activity assays were performed against Trypanosoma brucei rhodesiense STIB 900 (trypomastigotes), Trypanosoma cruzi Tulahuen C4 (amastigotes) and Leishmania donovani MHOM-ET-67/L82 (host free axenic amastigotes) to determine the IC50 values as previously described by Orhan et al. (2010) (Supplementary Table 4).9 Additionally, cytotoxicity was determined with an L6 rat-derived cell line (Supplementary Table 4). […]
(§10) Supplementary Table 4: Antiparasitic activity and cytotoxicity of natural and hybrid CDPs. Antiparasitic activity was analyzed against Trypanosoma brucei rhodesiense STIB 900 (trypomastigotes), Trypanosoma cruzi Tulahuen C4 (amastigotes) and Leishmania donovani MHOM-ET-67/L82 (host free axenic amastigotes) as IC50-values.
(§11) Cytotoxicity was analyzed with rat-derived L6 cells. […]

in vitro = conditions: rat
Description: as §1
67/L82 (host free axenic amastigotes) to determine the IC50 values as previously described by Orhan et al. (2010) (Supplementary Table 4).9 Additionally, cytotoxicity was determined with an L6 rat-derived cell line (Supplementary Table 4). […]
Supplementary Table 4: Antiparasitic activity and cytotoxicity of natural and hybrid CDPs. […]
as §11

[6] = tested on: Mycobacterium vaccae STI:10670; experiment: Antibacterial inhibition zone test, M. vaccae; format: cell-based; conditions: JMRC-No. STI:10670; Supplementary Table 5
Description: as §1
(§12) For antibacterial testing, the following strains were used: Bacillus subtilis STI:10880, Psudomonas aeruginosa ST:337721 (multi-resistent), Staphylococcus aureus ST:33793, Enterococcus faecalis ST:33700 (vancomycin-resistent) and Mycobacterium vaccae STI:10670 (Supplementary […]
as §3, §4
(§13) Supplementary Table 5: Antibacterial activity of natural and hybrid CDPs. Activity was analyzed by comparison of inhibition zone diameters. […]
as §5, §6, §7
(§14) A- Intimation of inhibition […]

[7] = tested on: Bacillus subtilis STI:10880; experiment: Antibacterial inhibition zone test, B. subtilis; format: cell-based; conditions: JMRC-No. STI:10880; Supplementary Table 5
Description: as §1, §12, §3, §4, §13, §5, §6, §7, §14

[8] = tested on: Staphylococcus aureus ST:33793; experiment: Antibacterial inhibition zone test, S. aureus; format: cell-based; conditions: JMRC-No. ST:33793; Supplementary Table 5
Description: as §1, §12, §3, §4, §13, §5, §6, §7, §14

[9] = tested on: Trypanosoma brucei rhodesiense STIB 900 (trypomastigotes); experiment: microbe, parasite or virus in culture
Description: as §1
as §10, with “IC50-values. […]” for “IC50-values.”

[10] = tested on: Leishmania donovani MHOM-ET-67/L82 (host free axenic amastigotes); experiment: microbe, parasite or virus in culture; conditions: for IC50: read-out: IC50 Leishmania donovani
Description: as §1
as §10, with “IC50-values. […]” for “IC50-values.”

[11] = tested on: Enterococcus faecalis ST:33700 (vancomycin-resistent); format: cell-based; conditions: JMRC-No. ST:33700; Supplementary Table 5
Description: as §1, §12, §3, §4, §13, §5, §6, §7, §14

[12] = tested on: Pseudomonas aeruginosa ST:337721 (multi-resistent); experiment: Antibacterial inhibition zone test, P. aeruginosa; format: cell-based; conditions: JMRC-No. ST:337721; Supplementary Table 5; solvent gave 10
Description: as §1, §12, §3, §4, §13, §5, §6, §7, §14

[13] = Tulahuen C4, amastigotes, Supplementary Table 4 and main text
[14] = MHOM-ET-67/L82, host free axenic amastigotes, Supplementary Table 4 and main text
[15] = read-out: IC50 Trypanosoma b. rhodesiense, STIB 900, trypomastigotes, Supplementary Table 4

Structure (SMILES)	Inhibition zone diameter, Aspergillus fumigatus [1]	Inhibition zone diameter, Candida albicans [2]	Inhibition zone diameter, Penicillium notatum [3]	Inhibition zone diameter, Sporobolomyces salmonicolor [4]	IC50 ([5]; Trypanosoma cruzi, TULAHUEN)	IC50 (in vitro)	Inhibition zone diameter, Mycobacterium vaccae [6]	Inhibition zone diameter, Bacillus subtilis [7]	Inhibition zone diameter, Staphylococcus aureus [8]	IC50 ([9]; Trypanosoma brucei, RHODESIENSE|STIB900, read-out: IC50 Trypanosoma b. rhodesiense)	IC50 ([10]; Leishmania donovani)	IC50 [5, 13]	Inhibition zone diameter, Enterococcus faecalis (vancomycin-resistent) [11]	Inhibition zone diameter, Pseudomonas aeruginosa (multi-resistent) [12]	IC50 [10, 14]	IC50 [9, 15]	activity against Trypanosoma cruzi (in words) [5]	activity against Leishmania donovani (in words) [10]	activity against Trypanosoma b. rhodesiense (in words) [9]	fold lower IC50 against T. cruzi than the reference drug benznidazole [5]
C[C@@H]1[C@H](O)[C@@H](C)/C=C/C=C/C=C/C=C/C=C/C=C/C=C/[C@H](O[C@@H]2O[C@H](C)[C@@H](O)[C@H](N)[C@@H]2O)C[C@@H]2O[C@](O)(C[C@@H](O)C[C@@H](O)[C@H](O)CC[C@@H](O)C[C@@H](O)CC(=O)O[C@H]1C)C[C@H](O)[C@H]2C(=O)O [Amphotericin B, amphotericin B]	20	20	18p	18p	–	–	–	–	–	–	–	–	–	–	–	–	–	–	–	–
O=C(Cn1ccnc1[N+](=O)[O-])NCc1ccccc1 [Benznidazole, benznidazole]	–	–	–	–	6.53 µM	> 380 µM	–	–	–	–	–	–	–	–	–	–	–	–	–	–
O=C(O)c1cn(C2CC2)c2cc(N3CCNCC3)c(F)cc2c1=O [Ciprofloxacin, ciprofloxacin]	–	–	–	–	–	–	20p	29	0	–	–	–	–	–	–	–	–	–	–	–
Nc1nc(N)nc(Nc2ccc([As]3SCC(CO)S3)cc2)n1 (stereo not drawn) [Melarsoprol, melarsoprol]	–	–	–	–	–	28.6 µM	–	–	–	0.007 µM	–	–	–	–	–	–	–	–	–	–
CCCCCCCCCCCCCCCCOP(=O)([O-])OCC[N+](C)(C)C [Miltefosine, miltefosine]	–	–	–	–	–	138 µM	–	–	–	–	0.576 µM	–	–	–	–	–	–	–	–	–
CC(C)C[C@H]1C(=O)O[C@H](C(C)C)C(=O)N(C)[C@@H](CC(C)C)C(=O)O[C@H](C(C)C)C(=O)N(C)[C@@H](CC(C)C)C(=O)O[C@H](C(C)C)C(=O)N(C)[C@@H](CC(C)C)C(=O)O[C@H](C(C)C)C(=O)N1C [bassianolide]	0	0	0	0	–	5.11 µM	12p	0	0	–	–	1.39 µM	0	0	0.195 µM	1.69 µM	–	–	–	–
CC(C)[C@H]1OC(=O)[C@H](Cc2ccccc2)N(C)C(=O)[C@@H](C(C)C)OC(=O)[C@H](Cc2ccccc2)N(C)C(=O)[C@@H](C(C)C)OC(=O)[C@H](Cc2ccccc2)N(C)C1=O [beauvericin]	–	0	14p	0	–	1.94 µM	27	18	13	–	–	0.764 µM	18F	14P	0.311 µM	1.63 µM	–	–	–	–
CC(C)[C@H]1C(=O)O[C@H](C(C)C)C(=O)N(C)[C@@H](C(C)C)C(=O)O[C@H](C(C)C)C(=O)N(C)[C@@H](C(C)C)C(=O)O[C@H](C(C)C)C(=O)N1C [enniatin B]	0	0	–	0	–	4.11 µM	24	15p	15P	–	–	2.31 µM	–	–	0.719 µM	1.05 µM	–	–	–	–
CC(C)C[C@H]1C(=O)O[C@H](C(C)C)C(=O)N(C)[C@@H](CC(C)C)C(=O)O[C@H](C(C)C)C(=O)N(C)[C@@H](CC(C)C)C(=O)O[C@H](C(C)C)C(=O)N1C [hexa-bassianolide]	0	0	0	0	–	6.35 µM	14p	10	0	–	–	3.52 µM	0	–	0.315 µM	1.26 µM	active	active	active	–
CC(C)[C@H]1OC(=O)[C@H](Cc2ccccc2)N(C)C(=O)[C@@H](C(C)C)OC(=O)[C@H](Cc2ccccc2)N(C)C(=O)[C@@H](C(C)C)OC(=O)[C@H](Cc2ccccc2)N(C)C(=O)[C@@H](C(C)C)OC(=O)[C@H](Cc2ccccc2)N(C)C1=O [octa-beauvericin]	–	0	0	0	–	1.58 µM	12p	0	0	–	–	0.533 µM	0	0	0.144 µM	0.782 µM	–	–	–	up to 12 fold
CC(C)[C@H]1C(=O)O[C@H](C(C)C)C(=O)N(C)[C@@H](C(C)C)C(=O)O[C@H](C(C)C)C(=O)N(C)[C@@H](C(C)C)C(=O)O[C@H](C(C)C)C(=O)N(C)[C@@H](C(C)C)C(=O)O[C@H](C(C)C)C(=O)N1C [octa-enniatin B]	–	–	–	–	–	3.9 µM	–	–	–	–	–	1.75 µM	–	–	0.07 µM	0.873 µM	–	–	–	up to 12 fold
